Results published in patent US20250154134A1, “COMPOUND AS FAK INHIBITOR AND USE THEREOF” (WIGEN BIOMEDICINE TECHNOLOGY (SHANGHAI) CO., LTD., priority 2022, published 2025).
Where two headings read alike, the source gives them in different places.

Tests used:
PC3 cells [1] = experiment: Inhibition of PC3 cell low adsorption (adherent cell count, 4 h); type: cell-based; conditions: Homo sapiens, PC-3; 4 h treatment; read-out: IC50 against PC3 cell low adsorption
Method: PC3 cells were seeded at 8000 cells/well. 4 h after the cells were treated with a compound, the number of adherent cells was counted. The inhibition percentage and IC50 of the compound were calculated compared to the DMSO group.

PC3 cells [2] = experiment: PC3 cell proliferation, 3D activity assay (3D culture, 14 days); type: cell-based, human; conditions: Homo sapiens, PC-3, 336 h, read-out: 3D inhibitory activity against PC3 cells IC50
[3] = In vivo pharmacokinetic experiment in CD-1 mice; conditions: mouse, plasma, CD-1 female mice; for Vd: read-out: Vdss
Method: […] The mice were fasted for at least 12 h before the administration and given food 4 h after the administration, and they were given ad libitum access to water during the experiment.
On the day of the experiment, animals in the intravenous group were given the corresponding compound by single injection via the tail vein at an administration volume of 10 mL/kg; and animals in the oral group were given the corresponding compound by single intragastric injection at an administration volume of 10 mL/kg. The animals were weighed before administration, and the administration volume was calculated according to the body weight. The sample collection time points were 0.083 h, 0.167 h, 0.5 h, 1 h, 2 h, 4 h, 8 h, and 24 h. About 200 μL of whole blood was collected through the orbital venous plexus at each time point and used to prepare plasma for concentration determination by high-performance liquid chromatography-tandem mass spectrometry (LC-MS/MS). The plasma concentrations were processed using a non-compartmental model of Winnolin pharmacokinetic software, and the pharmacokinetic parameters were calculated using a linear-log trapezoidal method.

PC3 cells [4] = experiment: PC3 cell proliferation, 2D activity assay (Cell Titer-Lumi, 72 h); type: cell-based, human; conditions: Homo sapiens, PC-3, read-out: 2D inhibitory activity against PC3 cells IC50
[5] = tested on: Human pancreatic cancer Mia PaCa-2 cells; experiment: In vivo efficacy, Mia PaCa-2 xenograft in nude mice; parameters: species or system mouse; conditions: MiaPaCa-2 model, 25 mg/kg PO QD 21 days
Method: (§1) The groups were as follows: 1) a solvent control group, 8 mice; and 2) a control compound group and a test compound group, 8 mice each. The mice in the solvent control group were intragastrically administered 0.5% CMC-Na twice a day; the mice in the compound groups were intragastrically administered 0.50% MC-Tween-80 suspension once a day. On Tuesday and Thursday each week, tumor volumes and body weight of the mice were measured, and the nude mice were sacrificed on day 21 after the administration. […] The toxicity of the compounds was evaluated according to the body weight of the mice.

[6] = tested on: phosphorylation at the FAK 397 site; experiment: Inhibition of Y397 phosphorylation in PC3 cells (ELISA); type: cell-based; conditions: Homo sapiens, PC-3, 3 h treatment, read-out: IC50 against Y397 phosphorylation
Method: PC3 cells were seeded at 8000 cells/well. […] The inhibition percentage and IC50 of the compound were calculated compared to the DMSO group.

[7] = tested on: Human prostate cancer PC3 cells; experiment: In vivo efficacy, PC3 xenograft in nude mice; parameters: species or system mouse; conditions: PC-3 model, 25 mg/kg, QD (21 days), PO
Method: as §1, with “0.5%” for “0.50%”

FAK recombinant protein = FAK recombinant protein (Homo sapiens (Human), UniProt Q05397); experiment: Inhibitory activity against FAK enzyme (HTRF, TK substrate); type: biochemical
Method: A compound serially diluted with DMSO was mixed with a FAK recombinant protein. After the mixture was left to stand at room temperature for 10 min, a biotin-labeled TK substrate (TK) and ATP were added. […] The inhibition percentage and IC50 of the compound were calculated compared to the DMSO control group.

[8] = intravenous, injection (1 mg/kg)

Sequence of FAK recombinant protein (Q05397 whole entry): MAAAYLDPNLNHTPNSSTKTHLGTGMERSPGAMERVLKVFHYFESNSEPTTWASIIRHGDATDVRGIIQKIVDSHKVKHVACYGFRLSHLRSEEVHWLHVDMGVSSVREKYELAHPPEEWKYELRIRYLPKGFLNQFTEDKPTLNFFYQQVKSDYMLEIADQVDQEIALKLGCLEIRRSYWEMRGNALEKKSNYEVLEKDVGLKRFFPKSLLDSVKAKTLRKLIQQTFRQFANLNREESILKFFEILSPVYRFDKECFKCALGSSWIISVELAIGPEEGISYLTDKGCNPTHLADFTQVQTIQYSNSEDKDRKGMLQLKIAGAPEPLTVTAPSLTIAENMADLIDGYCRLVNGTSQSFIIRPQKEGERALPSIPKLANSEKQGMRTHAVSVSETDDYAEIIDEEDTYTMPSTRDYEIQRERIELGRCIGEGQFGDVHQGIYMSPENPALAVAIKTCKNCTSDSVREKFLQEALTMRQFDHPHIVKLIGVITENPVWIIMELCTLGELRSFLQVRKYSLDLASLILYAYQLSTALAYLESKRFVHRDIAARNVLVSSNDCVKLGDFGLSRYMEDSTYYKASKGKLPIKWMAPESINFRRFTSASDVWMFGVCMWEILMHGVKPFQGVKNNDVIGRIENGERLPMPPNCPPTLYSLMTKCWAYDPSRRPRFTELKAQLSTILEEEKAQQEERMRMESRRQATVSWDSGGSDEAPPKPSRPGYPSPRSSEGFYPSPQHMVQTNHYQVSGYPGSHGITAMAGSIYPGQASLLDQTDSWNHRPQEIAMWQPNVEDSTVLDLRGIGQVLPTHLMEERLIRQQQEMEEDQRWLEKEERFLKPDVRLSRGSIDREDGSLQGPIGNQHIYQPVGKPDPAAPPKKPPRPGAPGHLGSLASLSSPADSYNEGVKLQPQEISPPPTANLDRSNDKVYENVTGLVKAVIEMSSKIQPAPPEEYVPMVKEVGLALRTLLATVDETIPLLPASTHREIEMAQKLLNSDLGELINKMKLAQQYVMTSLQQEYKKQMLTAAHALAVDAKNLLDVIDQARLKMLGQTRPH

Row | IC50 (PC3 cells [1]) [nM] | IC50 (PC3 cells [2]) [nM] | IC50 (PC3 cells [4]) [nM] | IC50 [6] [nM] | IC50 (FAK recombinant protein) [nM] | Structure (SMILES) | other results
1 | 3.14 | 0.45 | > 2000 |  |  | COc1cc(C(=O)NC2CCN(C)CC2)ccc1Nc1ncc(C(F)(F)F)c(Oc2cccc3c2C(=O)N(C)C32CC2)n1 [Compound 3, 3-methoxy-4-((4-((2′-methyl-3′-oxospiro[cyclopropane-1,1′-isoindolin]-4′-yl)oxy)-5-(trifluoromethyl)pyrimidin-2-yl)amino)-N-(1-methylpiperidin-4-yl)benzamide] | AUC(0-t) [3, 8]: 0.248 µg·h/mL; clearance [3, 8]: 4.03 L/h/kg; half-life [3, 8]: 2.14 h; Vd [3, 8]: 6.14 L/kg; AUC(0-t) ([3]; oral administration (10 mg/kg)): 0.19 µg·h/mL; Cmax ([3]; oral administration (10 mg/kg)): 0.0573 µg/mL; Tmax ([3]; oral administration (10 mg/kg)): 4 h; bioavailability ([3]; oral administration (10 mg/kg)): 7.94%
2 | 6.87 | 2.01 | > 2000 | 0.025 | < 20 | COc1cc(C(=O)NC2CCN(C)CC2)c(F)cc1Nc1ncc(C(F)(F)F)c(Oc2cccc3c2C(=O)N(C)C32CC2)n1 [Compound 4] | TGI(%) [5]: 69.02%; AUC(0-t) ([3]; iv, injection (1 mg/kg)): 0.489 µg·h/mL; clearance ([3]; iv, injection (1 mg/kg)): 2.04 L/h/kg; half-life ([3]; iv, injection (1 mg/kg)): 1.78 h; Vd ([3]; iv, injection (1 mg/kg)): 4.35 L/kg; AUC(0-t) ([3]; oral administration (10 mg/kg)): 2.09 µg·h/mL; Cmax ([3]; oral administration (10 mg/kg)): 0.361 µg/mL; Tmax ([3]; oral administration (10 mg/kg)): 4 h; bioavailability ([3]; oral administration (10 mg/kg)): 42.6%; TGI(%) [7]: 61.48%
3 | 5.01 | 1.99 | > 10000 | 0.028 | < 20 | COc1cc(N2CCN(C)CC2)ccc1Nc1ncc(C(F)(F)F)c(Oc2cccc3c2C(=O)N(C)C32CC2)n1 [Compound 73] | AUC(0-t) ([3]; iv, injection (1 mg/kg)): 0.414 µg·h/mL; clearance ([3]; iv, injection (1 mg/kg)): 2.41 L/h/kg; half-life ([3]; iv, injection (1 mg/kg)): 1.93 h; Vd ([3]; iv, injection (1 mg/kg)): 5.67 L/kg; AUC(0-t) ([3]; oral administration (10 mg/kg)): 2.89 µg·h/mL; Cmax ([3]; oral administration (10 mg/kg)): 0.624 µg/mL; Tmax ([3]; oral administration (10 mg/kg)): 0.5 h; bioavailability ([3]; oral administration (10 mg/kg)): 59.3%; half-life ([3]; oral administration (10 mg/kg)): 3.32 h; TGI(%) [7]: 74.07%
4 | 5.83 | 0.78 | > 10000 | < 0.01 | < 20 | COc1cc(N2CCC(N3CCN(C)CC3)CC2)ccc1Nc1ncc(C(F)(F)F)c(Oc2cccc3c2C(=O)N(C)C32CC2)n1 [Compound 78] | 
5 | 6.29 | 5 to 50 | > 2000 |  | < 20 | COc1cc(CN2CCN(C)CC2)ccc1Nc1ncc(C(F)(F)F)c(Oc2cccc3c2C(=O)N(C)C32CC2)n1 [Compound 82] | 
6 | 42.4 | 1.78 | > 10000 |  | < 20 | CN1Cc2cc(Nc3ncc(C(F)(F)F)c(Oc4cccc5c4C(=O)N(C)C54CC4)n3)cc3c2C(CCC3)C1 (centres unmarked) [Compound 88] | 
7 | 36.2 | 5 to 50 | > 10000 |  | < 20 | CN1Cc2cc(Nc3ncc(C(F)(F)F)c(Oc4cccc5c4C(=O)N(C)C54CC4)n3)cc3c2C(CCO3)C1 (centres unmarked) [Compound 89] | 
8 | 36.4 | 5 to 50 | > 2000 |  | < 20 | Cc1cc(Nc2ncc(C(F)(F)F)c(Oc3cccc4c3C(=O)N(C)C43CC3)n2)n(C(C)C)n1 [Compound 91] | 
9 | 62 | 5 to 50 | > 2000 |  | < 20 | CN1C(=O)c2c(Oc3nc(Nc4cc5n(n4)CCC5)ncc3C(F)(F)F)cccc2C12CC2 [Compound 92, 4′-((2-((5,6-dihydro-4H-pyrrolo[1,2-b]pyrazol-2-yl)amino)-5-(trifluoromethyl)pyrimidin-4-yl)oxy)-2′-methylspiro[cyclopropane-1,1′-isoindolin]-3′-one] | 
10 | 2.85 | 1.09 | > 2000 | 0.39 | < 20 | COc1cc(C(=O)NC2CCN(C)CC2)ccc1Nc1ncc(Cl)c(Oc2cccc3c2C(=O)N(C)C32CC2)n1 [Compound 114, 4-((5-chloro-4-((2′-methyl-3′-oxospiro[cyclopropane-1,1′-isoindolin]-4′-yl)oxy)pyrimidin-2-yl)amino)-3-methoxy-N-(1-methylpiperidin-4-yl)benzamide] | 
11 | 4.6 | 5 to 50 | > 2000 | 0.7 | < 20 | COc1cc(C(=O)NC2CCN(C)CC2)c(F)cc1Nc1ncc(Cl)c(Oc2cccc3c2C(=O)N(C)C32CC2)n1 [Compound 117] | TGI(%) [5]: 62.86%; AUC(0-t) ([3]; iv, injection (1 mg/kg)): 0.64 µg·h/mL; clearance ([3]; iv, injection (1 mg/kg)): 1.56 L/h/kg; half-life ([3]; iv, injection (1 mg/kg)): 1.81 h; Vd ([3]; iv, injection (1 mg/kg)): 3.47 L/kg; AUC(0-t) ([3]; oral administration (10 mg/kg)): 7.85 µg·h/mL; Cmax ([3]; oral administration (10 mg/kg)): 0.822 µg/mL; Tmax ([3]; oral administration (10 mg/kg)): 2 h; bioavailability ([3]; oral administration (10 mg/kg)): 123%; half-life ([3]; oral administration (10 mg/kg)): 2.22 h
12 | 7.2 | < 5 | > 2000 |  | < 20 | COc1cc(N2CCC(N3CCN(C)CC3)CC2)c(F)cc1Nc1ncc(C(F)(F)F)c(Oc2cccc3c2C(=O)N(C)C32CC2)n1 [Compound 121, 4′-((2-((5-fluoro-2-methoxy-4-(4-(4-methylpiperazin-1-yl)piperidin-1-yl)phenyl)amino)-5-(trifluoromethyl)pyrimidin-4-yl)oxy)-2′-methylspiro[cyclopropane-1,1′-isoindolin]-3′-one] | 
13 | 5.2 | 1.7 | > 2000 | 0.56 | < 20 | COc1cc(N2CCC(N3CCN(C)CC3)CC2)ccc1Nc1ncc(Cl)c(Oc2cccc3c2C(=O)N(C)C32CC2)n1 [Compound 139] | 
14 | 13.9 | 5 to 50 | > 2000 |  | < 20 | COc1cc(N2CCN(C)CC2)ccc1Nc1ncc(Cl)c(Oc2cccc3c2C(=O)N(C)C32CC2)n1 [Compound 141] | 
15 | 6.9 | 5 to 50 | > 2000 |  | < 20 | COc1cc(CN(C)C2CCN(C)CC2)ccc1Nc1ncc(Cl)c(Oc2cccc3c2C(=O)N(C)C32CC2)n1 [Compound 154] | 
16 | 1.86 | 0.38 | > 2000 | 0.02 | < 20 | COc1cc(N2CC3(CCN(C)CC3)C2)ccc1Nc1ncc(Br)c(Oc2cccc3c2C(=O)N(C)C32CC2)n1 [Compound 177, 4′-((5-bromo-2-((2-methoxy-4-(7-methyl-2,7-diazaspiro[3.5]nonan-2-yl)phenyl)amino)pyrimidin-4-yl)oxy)-2′-methylspiro[cyclopropane-1,1′-isoindolin]-3′-one] | AUC(0-t) ([3]; iv, injection (1 mg/kg)): 1.11 µg·h/mL; clearance ([3]; iv, injection (1 mg/kg)): 0.899 L/h/kg; half-life ([3]; iv, injection (1 mg/kg)): 5.89 h; Vd ([3]; iv, injection (1 mg/kg)): 7.51 L/kg; AUC(0-t) ([3]; oral administration (10 mg/kg)): 7.45 µg·h/mL; Cmax ([3]; oral administration (10 mg/kg)): 0.815 µg/mL; Tmax ([3]; oral administration (10 mg/kg)): 2 h; bioavailability ([3]; oral administration (10 mg/kg)): 67%; half-life ([3]; oral administration (10 mg/kg)): 3.37 h
17 | 6.22 | 0.38 | > 2000 |  | < 20 | COc1cc(N2CC3(CCN(C)CC3)C2)c(F)cc1Nc1ncc(Br)c(Oc2cccc3c2C(=O)N(C)C32CC2)n1 [Compound 178] | TGI(%) [5]: 82.41%
18 | 1.6 | 0.33 | > 2000 | 0.05 | < 20 | COc1cc(N2CC3(CCN(C)CC3)C2)ccc1Nc1ncc(C#N)c(Oc2cccc3c2C(=O)N(C)C32CC2)n1 [Compound 196, 2-((2-methoxy-4-(7-methyl-2,7-diazaspiro[3.5]nonan-2-yl)phenyl)amino)-4-((2′-methyl-3′-oxospiro[cyclopropane-1,1′-isoindolin]-4′-yl)oxy)pyrimidine-5-carbonitrile] | 
19 | 1.67 | 2.42 | > 2000 |  | < 20 | COc1cc(N2CC3(CCN(C)CC3)C2)c(F)cc1Nc1ncc(C#N)c(Oc2cccc3c2C(=O)N(C)C32CC2)n1 [Compound 197] | 
